Test results as given in patent publication US20260103444A1, “8-HYDROXYQUINOLINE COMPOUND AND USE THEREOF” (OSAKA UNIVERSITY, priority 2022, published 2026).

Tests used:
[1] = molecular target: T1, cMLCK (Homo sapiens, UniProt Q32MK0); experiment: cMLCK activity, ADP-Glo kinase assay; type: biochemical; conditions: for cMLCK activity compared with the compound of Synthesis Example 1: ADP-Glo kinase assay, relative to Synthesis Example 1 (LEU-0992); for cMLCK activation action, dose dependence: ADP-Glo assay; for specificity for cMLCK: versus smMLCK and skMLCK
T1 construct: BTN (vendor prefix; by own knowledge, biotinylated); purchased Carna Bioscience #02-460-20N
Description: The cMLCK activation action by 8-hydroxyquinoline compounds was measured by using the ADP-Glo kinase assay (Promega) according to the manufacturer's protocol.
(§1) Purchased purified human cMLCK (BTN-cMLCK, #02-460-20N, Carna Bioscience) as well as in-house purified calmodulin (NM 006888) and cardiac myosin regulatory light chain (MLC2v) (NM 000432) were used to perform phosphorylation to thereby establish an in vitro kinase assay system for measuring cMLCK activity according to the ADP-Glo assay (Promega) or Kumagai method. This system was then applied to high-throughput screening (HTS). The HTS was performed by using multiple domestic compound libraries (compound concentration: 10 μM), and structural development of candidate compounds was performed, thereby developing cMLCK activators based on the 8-hydroxyquinoline (8HQ) skeleton.

[2] = test system: wild-type human iPS cardiomyocytes; experiment: intracellular calcium dynamics (Cal-520, FDSS kinetic plate imager); type: cell-based; conditions: wild-type iPSC-CMs, various concentrations, with pacing
Description: CTAs: average changes of calcium transient amplitude at systole, PWD50: pulse width duration measured at 50% CTAs
Wild-type iPSC-CMs were seeded on a 96-well plate at a density of 5×10^4 cells/well and cultured in DMEM with 10% FBS for 24 hours. Subsequently, Cal-520 (ab171868, Abcam) was then added to a final concentration of 5 μM, and the cells were cultured for an additional hour. After removing the medium and washing with HHBS buffer, the buffer was replaced with FluoroBrite DMEM containing various concentrations of LEUO-1154, isoproterenol (positive control group: catecholamine stimulation), or DMSO (negative control group). Intracellular calcium dynamics was then measured with pacing by using an FDSS/ρCell kinetic plate imager (Hamamatsu Photonics K. K.).

[3] = phase 3 clinical trial; cited from earlier work
[4] = molecular target: T2, human skeletal muscle-type MLCK (skMLCK) (Homo sapiens, UniProt Q9H1R3); experiment: specificity: in-vitro kinase reaction with skMLCK and its substrate MYLPF, ADP-Glo assay; type: biochemical; conditions: skMLCK with substrate MYLPF
T2 construct: made in house
Description: (§2) Next, the specificity of the two 8HQ compounds (LEU-1142 and LEU-1170) for human smooth muscle-type MLCK (smMLCK, NM 053025) and human skeletal muscle-type MLCK (skMLCK, NM 033118), which are cMLCK family proteins, was examined (FIGS. 7-1 and 7-2). In-vitro kinase reactions were performed using smMLCK and its substrate MYL9 (NM 006097), and skMLCK and its substrate MYLPF (NM 013292), which had been all purified in-house, and their activity was measured according to the ADP-Glo assay.

[5] = molecular target: T1, cMLCK; experiment: enzymatic study (Michaelis-Menten kinetics) of cMLCK; type: biochemical
Description: as §1

[6] = molecular target: T3, human smooth muscle-type MLCK (smMLCK) (Homo sapiens, UniProt Q15746); experiment: specificity: in-vitro kinase reaction with smMLCK and its substrate MYL9, ADP-Glo assay; type: biochemical; conditions: smMLCK with substrate MYL9, ADP-Glo assay
T3 construct: made in house
Description: as §2

[7] = molecular target: T1, cMLCK; experiment: phosphorylation of MLC2v by phos-tag PAGE; type: biochemical

**Q.** For `Oc1cccnc1NC(c1ccc(F)cc1)c1ccc2cccnc2c1O` (stereo not drawn) [LEU-0942, 7-{(4-fluorophenyl) [(3-hydroxypyridin-2-yl)amino]methyl}quinolin-8-ol], which “cMLCK activity compared with the compound of Synthesis Example 1” value [1] is on record?
**A.** weaker

**Q.** Which “cMLCK activity compared with the compound of Synthesis Example 1” value [1] does the source give for `Oc1c(CN2CCC(Cc3ccccc3)CC2)cc(Cl)c2cccnc12` [LEU-0999, 7-[(4-benzylpiperidin-1-yl)methyl]-5-chloroquinolin-8-ol] here?
**A.** weaker

**Q.** Which “cMLCK activity compared with the compound of Synthesis Example 1” value [1] does the source give for `O=[N+]([O-])c1cccc(C(Nc2nccs2)c2ccc3cccnc3c2O)c1` (stereo not drawn) [LEU-0944, 7-[(3-nitrophenyl) (thiazol-2-ylamino)methyl]quinolin-8-ol] here?
**A.** equivalent

**Q.** With `CC(C)NCC(O)c1ccc(O)c(O)c1` (stereo not drawn) [isoproterenol, reference compound] as the molecule, how does the calcium dynamics [2] read?
**A.** enhanced calcium dynamics

**Q.** Which “cMLCK activity compared with the compound of Synthesis Example 1” value [1] does the source give for `COc1ccc(C(Nc2ccccn2)c2cc(Cl)c3cccnc3c2O)cc1[N+](=O)[O-]` (stereo not drawn) [LEU-0997, 5-chloro-7-[(4-methoxy-3-nitrophenyl) (pyridin-2-ylamino)methyl]quinolin-8-ol] here?
**A.** equivalent

**Q.** For `CCCCC(=O)NC(c1ccc(OC)cc1)c1ccc2cccnc2c1O` (stereo not drawn) [LEU-1128, N-[(8-hydroxyquinolin-7-yl) (4-methoxyphenyl)methyl]pentanamide], which “cMLCK activity compared with the compound of Synthesis Example 1” value [1] is on record?
**A.** weaker

**Q.** For `CCCCC(=O)NC(c1ccc(OC)cc1)c1cc(Cl)c2cccnc2c1O` (stereo not drawn) [LEU-1018, N-[(5-chloro-8-hydroxyquinolin-7-yl) (4-methoxyphenyl)methyl]pentanamide], which “cMLCK activity compared with the compound of Synthesis Example 1” value [1] is on record?
**A.** weaker

**Q.** For `COc1ccc(C(NC(=O)C(C)C)c2cc([N+](=O)[O-])c3cccnc3c2O)cc1` (stereo not drawn) [LEU-1220, N-[(8-hydroxy-5-nitroquinolin-7-yl) (4-methoxyphenyl)methyl]isobutyramide], which “cMLCK activity compared with the compound of Synthesis Example 1” value [1] is on record?
**A.** equivalent

**Q.** With `CCC(=O)NC(c1ccc(OC)cc1)c1cc([N+](=O)[O-])c2cccnc2c1O` (stereo not drawn) [LEU-0993] as the molecule, how does the “cMLCK activity compared with the compound of Synthesis Example 1” value [1] read?
**A.** equivalent

**Q.** Which “cMLCK activity compared with the compound of Synthesis Example 1” value [1] does the source give for `Oc1c(C(Nc2nccs2)c2ccccc2)ccc2cccnc12` (stereo not drawn) [LEU-1008, 7-[phenyl(thiazol-2-ylamino)methyl]quinolin-8-ol] here?
**A.** equivalent

**Q.** Which “time to onset of heart failure” value [3] does the source give for `COC(=O)N1CCN(Cc2cccc(NC(=O)Nc3ccc(C)nc3)c2F)CC1` [Omecamtiv mecarbil (OM), Omecamtiv mecarbil] here?
**A.** prolonging the time to onset of heart failure without worsening prognosis

**Q.** For `COc1ccc(C(NC(C)=O)c2cc([N+](=O)[O-])c3cccnc3c2O)cc1` (stereo not drawn) [LEU-0990, N-[(8-hydroxy-5-nitroquinolin-7-yl) (4-methoxyphenyl)methyl]acetamide], which “cMLCK activity compared with the compound of Synthesis Example 1” value [1] is on record?
**A.** weaker

**Q.** What does the source list for `CCCCC(=O)NC(c1ccc(-n2ccnc2)cc1)c1cc([N+](=O)[O-])c2cccnc2c1O` (stereo not drawn) [LEU-1142, N-{[4-(1H-imidazol-1-yl)phenyl] (8-hydroxy-5-nitroquinolin-7-yl)methyl}pentanamide]?
**A.** specificity for skMLCK [4]: Neither compound showed specificity; effect on Km [5]: did not affect Km; specificity for smMLCK [6]: Neither compound showed specificity; phosphorylation of MLC2v [7]: increase the phosphorylation of MLC2v; cMLCK activation action, dose dependence [1]: dose-dependent; specificity for cMLCK [1]: high specificity for cMLCK

**Q.** With `Oc1ccccc1C(Nc1nccs1)c1ccc2cccnc2c1O` (stereo not drawn) [LEU-0945, 7-[(2-hydroxyphenyl) (thiazol-2-ylamino)methyl]quinolin-8-ol] as the molecule, how does the “cMLCK activity compared with the compound of Synthesis Example 1” value [1] read?
**A.** weaker

**Q.** With `Oc1c(C(Nc2ccccn2)c2cccnc2)cc(Cl)c2cccnc12` (stereo not drawn) [LEU-0998, 5-chloro-7-[(pyridin-2-ylamino) (pyridin-3-yl)methyl]quinolin-8-ol] as the molecule, how does the “cMLCK activity compared with the compound of Synthesis Example 1” value [1] read?
**A.** weaker

**Q.** For `Oc1c(C(c2ccc(C(F)(F)F)cc2)N2CCCCC2)ccc2cccnc12` (stereo not drawn) [LEU-0943, 7-(piperidin-1-yl [4-(trifluoromethyl)phenyl]methyl}quinolin-8-ol], which “cMLCK activity compared with the compound of Synthesis Example 1” value [1] is on record?
**A.** weaker

**Q.** For `CCCCC(=O)NC(c1ccc(N2CCOCC2)nc1)c1cc([N+](=O)[O-])c2cccnc2c1O` (stereo not drawn) [LEU-1170, N-[(8-hydroxy-5-nitroquinolin-7-yl) (6-morpholinopyridin-3-yl)methyl]pentanamide], which “specificity for skMLCK” value [4] is on record?
**A.** Neither compound showed specificity

**Q.** What about the “effect on Km” value [5] of the same molecule?
**A.** did not affect Km

**Q.** And the “specificity for smMLCK” value [6]?
**A.** Neither compound showed specificity

**Q.** What about the “phosphorylation of MLC2v” value [7] of the same molecule?
**A.** increase the phosphorylation of MLC2v

**Q.** And the “cMLCK activation action, dose dependence” value [1]?
**A.** dose-dependent

**Q.** What about the “specificity for cMLCK” value [1] of the same molecule?
**A.** high specificity for cMLCK
